From US20250179077A1, “QUINAZOLINE COMPOUNDS AND USES THEREOF AS INHIBITORS OF MUTANT KRAS PROTEINS” (AMGEN INC., priority 2022, published 2025)

Tests used:
[1] = biological target: His-tagged KRAS G12D protein (Homo sapiens, UniProt P01116, G12D); test: KRAS G12D TR-FRET Assay; assay type: binding
How it was run: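 His-KRAS G12D (20 nM) was preincubated with titrated compound for 30 min at RT in HEPES pH 7.4 buffer with MgCl2, 10 μM GDP. Biotin-KRPep-2d (20 nM) was then added for 1 h, followed by Eu-anti-His/streptavidin-d2 for 1 h. The 665/615 nm TR-FRET ratio was fitted 4-parameter to give IC50.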

[2] = biological target: GDP-bound KRAS protein (aa 1-169), containing both G12D and C118A amino acid substitutions (Homo sapiens, UniProt P01116, C118A/G12D); test: KRAS G12D Coupled Nucleotide Exchange Assay; assay type: biochemical
Procedure: KRAS G12D Coupled Nucleotide Exchange Assay
Following compound pre-incubation, purified SOS protein (aa 564-1049) and GTP (Roche 10106399001) were added to the assay wells and incubated for an additional 30 min. […] The assay plates were then read on a PerkinElmer EnVision Multilabel Reader, using AlphaScreen® technology, and data were analyzed using a 4-parameter logistic model to calculate IC50 values.

[3] = system: Phosphorylation of ERK1/2 in AsPC-1 cells; test: Phospho-ERK1/2 MSD Assay; assay type: cell-based; conditions: Homo sapiens, ASPC1, 2 h, read-out: 2 h p-ERK (AsPC-1 cells), IC50, AsPC-1 cells, 2 h compound treatment
How it was run: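 Phospho-ERK1/2 was quantified by MSD whole-cell lysate immunoassay in RIPA lysates made with protease/phosphatase inhibitors. A 4-parameter logistic model gave IC50.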

GDP-bound KRAS protein (aa 1-169), containing both G12D and C118A amino acid substitutions, sequence (P01116 1-169 isoform P01116-2 G12D/C118A): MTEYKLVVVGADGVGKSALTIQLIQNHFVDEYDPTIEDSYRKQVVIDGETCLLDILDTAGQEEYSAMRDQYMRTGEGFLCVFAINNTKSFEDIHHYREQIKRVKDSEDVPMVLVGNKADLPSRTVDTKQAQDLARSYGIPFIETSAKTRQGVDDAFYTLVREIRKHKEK
His-tagged KRAS G12D protein, sequence (P01116 1-188 isoform P01116-2 G12D): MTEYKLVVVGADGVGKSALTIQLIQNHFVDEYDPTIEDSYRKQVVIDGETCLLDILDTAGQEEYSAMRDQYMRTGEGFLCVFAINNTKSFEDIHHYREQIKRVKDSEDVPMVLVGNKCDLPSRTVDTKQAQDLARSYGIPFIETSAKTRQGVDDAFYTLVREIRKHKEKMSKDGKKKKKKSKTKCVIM

Structure (SMILES) | IC50 [1] [nM] | IC50 [2] [nM] | IC50 [3] [nM]
CCc1c(F)ccc2cc(O)cc(-c3ccc4c(N5C[C@H](N)CC(F)(F)C5)nc(OC[C@@]56CCCN5C[C@H](F)C6)nc4c3F)c12 [Example 4, 4-(4-((R)-5-Amino-3,3-difluoropiperidin-1-yl)-8-fluoro-2-(((2R,7aS)-2-fluorotetrahydro-1H-pyrrolizin-7a(5H)-yl)methoxy)quinazolin-7-yl)-5-etbyl-6-fluoronaphthalen-2-ol] | 0.3 | 0.5 | 426
CCc1c(F)ccc2cc(O)cc(-c3ccc4c(N5C[C@H](NC(=O)OC)CC(F)(F)C5)nc(OC[C@@]56CCCN5C[C@H](F)C6)nc4c3F)c12 [Example 5, Methyl ((R)-1-(7-(8-ethyl-7-fluoro-3-hydroxynaphthalen-1-yl)-8-fluoro-2-(((2R,7aS)-2-fluorotetrahydro-1H-pyrrolizin-7a(5H)-yl)methoxy)quinazolin-4-yl)-5,5-difluoropiperidin-3-yl)carbamate] | 3 | 3 | 303
C[C@@]1(O)CCCN(c2nc(OC[C@@]34CCCN3C[C@H](F)C4)nc3c(F)c(-c4cc(O)cc(Cl)c4C4CC4)c(F)cc23)C1 [Example 6, (3R)-1-(7-(3-Chloro-2-cyclopropyl-5-hydroxyphenyl)-6,8-difluoro-2-(((2R,7aS)-2-fluorotetrahydro-1H-pyrrolizin-7a(5H)-yl)methoxy)quinazolin-4-yl)-3-methylpiperidin-3-ol] | 5 | 4 | 123
Oc1cc(Cl)c(C2CC2)c(-c2ccc3c(N4CCCOCC4)nc(OC[C@@]45CCCN4C[C@H](F)C5)nc3c2F)c1 [Example 7, 3-Chloro-4-cyclopropyl-5-(8-fluoro-2-(((2R,7a.S)-2-fluorotetrahydro-1H-pyrrolizin-7a(5H)-yl)methoxy)-4-(1,4-oxazepan-4-yl)quinazolin-7-yl)phenol] | 12 | 11 | 812
CCc1c(F)ccc2cc(O)cc(-c3c(F)cc4c(N5CCCOCC5)nc(OC[C@@]56CCCN5C[C@H](F)C6)nc4c3F)c12 [Example 9, 4-(6,8-Difluoro-2-(((2R,7aS)-2-fluorotetrahydro-1H-pyrrolizin-7a(5H)-yl)methoxy)-4-(1,4-oxazepan-4-yl)quinazolin-7-yl)-5-ethyl-6-fluoronaphthalen-2-ol] | 4 | 3 | 259
Oc1cc(-c2c(F)cc3c(N4CCCOCC4)nc(OC[C@@]45CCCN4C[C@H](F)C5)nc3c2F)c2ccccc2c1 [Example 10, 4-(6,8-Difluoro-2-(((2R,7aS)-2-fluorotetrahydro-1H-pyrrolizin-7a(5H)-yl)methoxy)-4-(1,4-oxazepan-4-yl)quinazolin-7-yl)naphthalen-2-ol] | 14 | 15 | 1040
CCc1c(F)ccc2cc(O)cc(-c3c(F)cc4c(N5CCC(O)C5)nc(OC[C@@]56CCCN5C[C@H](F)C6)nc4c3F)c12 (stereo partly drawn) [Example 19, 1-(7-(8-Ethyl-7-fluoro-3-hydroxynaphthalen-1-yl)-6,8-difluoro-2-(((2R,7a.S)-2-fluorotetrahydro-1H-pyrrolizin-7a(5H)-yl)methoxy)quinazolin-4-yl)pyrrolidin-3-ol] | 111 | 37 | 7740
CCc1c(F)ccc2cc(O)cc(-c3c(Cl)cc4c(N5CCC[C@@](C)(O)C5)nc(OC[C@@]56CCCN5C[C@H](F)C6)nc4c3F)c12 [Example 25, (3R)-1-(6-Chloro-7-(8-ethyl-7-fluoro-3-hydroxynaphthalen-1-yl)-8-fluoro-2-(((2R,7aS)-2-fluorotetrahydro-1H-pyrrolizin-7a(5H)-yl)methoxy)quinazolin-4-yl)-3-methylpiperidin-3-ol] | 4 | 5 | 146
CCc1c(F)ccc2cc(O)cc(-c3c(O)cc4c(N5CCCOCC5)nc(OC[C@@]56CCCN5C[C@H](F)C6)nc4c3F)c12 [Example 26, 7-(8-Ethyl-7-fluoro-3-hydroxynaphthalen-1-yl)-8-fluoro-2-(((2R,7aS)-2-fluorotetrahydro-1H-pyrrolizin-7a(5H)-yl)methoxy)-4-(1,4-oxazepan-4-yl)quinazolin-6-ol] | 4 | 4 | 270
CCc1c(F)ccc2cc(O)cc(-c3c(F)cc4c(N5CCOCC(F)(F)C5)nc(OC[C@@]56CCCN5C[C@H](F)C6)nc4c3F)c12 [Example 37, 4-(4-(6,6-Difluoro-1,4-oxazepan-4-yl)-6,8-difluoro-2-(((2R,7aS)-2-fluorotetrahydro-1H-pyrrolizin-7a(5H)-yl)methoxy)quinazolin-7-yl)-5-ethyl-6-fluoronaphthalen-2-ol] | 11 | 10 | 391
CCc1c(F)ccc2cc(O)cc(-c3ccc4c(N5CCCC6(CCO6)C5)nc(OC[C@@]56CCCN5C[C@H](F)C6)nc4c3F)c12 (stereo partly drawn) [Example 40, 5-Ethyl-6-fluoro-4-(8-fluoro-2-(((2R,7aS)-2-fluorotetrahydro-1H-pyrrolizin-7a(5H)-yl)methoxy)-4-(1-oxa-6-azaspiro[3.5]nonan-6-yl)quinazolin-7-yl)naphthalen-2-ol] | 6 | 11 | 53
Oc1cc(-c2ccc3c(N4CCCOCC4)nc(OC[C@]45CCCN4C[C@H](F)C5)nc3c2F)c2ccccc2c1 [Example 41, 4-(8-Fluoro-2-(((2R,7aR)-2-fluorotetrahydro-1H-pyrrolizin-7a(5H)-yl)methoxy)-4-(1,4-oxazepan-4-yl)quinazolin-7-yl)naphthalen-2-ol] | 23 | 23 | 1470
Oc1cc(-c2ccc3c(N4CCCOCC4)nc(OC[C@@]45CCCN4C[C@H](F)C5)nc3c2F)c2ccccc2c1 [Example 42, 4-(8-Fluoro-2-(((2R,7aS)-2-fluorotetrahydro-1H-pyrrolizin-7a(5H)-yl)methoxy)-4-(1,4-oxazepan-4-yl)quinazolin-7-yl)naphthalen-2-ol] | 25 | 14 | 1160
Oc1cc(-c2ccc3c(N4CCCOCC4)nc(OCC45CCCN4CCC5)nc3c2F)c2ccccc2c1 [Example 43, 4-(8-Fluoro-4-(1,4-oxazepan-4-yl)-2-((tetrahydro-1H-pyrrolizin-7a(5H)-yl)methoxy)quinazolin-7-yl)naphthalen-2-ol] | 22 | 13 | 1670
N#Cc1cc2c(N3CCCOCC3)nc(OC[C@@]34CCCN3C[C@H](F)C4)nc2c(F)c1-c1cc(O)cc2ccccc12 [Example 44, 8-Fluoro-2-(((2R,7aS)-2-fluorotetrahydro-1H-pyrrolizin-7a(5H)-yl)methoxy)-7-(3-hydroxynaphthalen-1-yl)-4-(1,4-oxazepan-4-yl)quinazoline-6-carbonitrile] | 50 | 28 | 1860
CCc1cccc2cc(O)cc(-c3c(C#N)cc4c(N5CCCOCC5)nc(OC[C@@]56CCCN5C[C@H](F)C6)nc4c3F)c12 [Example 45, 7-(8-Ethyl-3-hydroxynaphthalen-1-yl)-8-fluoro-2-(((2R,7aS)-2-fluorotetrahydro-1H-pyrrolizin-7a(5H)-yl)methoxy)-4-(1,4-oxazepan-4-yl)quinazoline-6-carbonitrile] | 12 | 7 | 525
